Measurements published in PubChem BioAssay AID2651 (Vanderbilt High Throughput Screening Facility, 2010).
Calls of active or inactive are those of the source.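 The calls were made as follows: active = mean EC50 from three replicate curves at or below a set limit; inactive = mean EC50 above a set limit.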

molecular target: Muscarinic acetylcholine receptor M1 (Rattus norvegicus) (UniProt P08482); assay: rat M1 PAM analog potency, SAR follow-up, cell-based, calcium mobilization, CHO-K1 (AID 2651); conditions: CHO-K1 rat M1, calcium Fluo-4, ACh EC20 potentiation
Sequence (P08482 whole entry, looked up): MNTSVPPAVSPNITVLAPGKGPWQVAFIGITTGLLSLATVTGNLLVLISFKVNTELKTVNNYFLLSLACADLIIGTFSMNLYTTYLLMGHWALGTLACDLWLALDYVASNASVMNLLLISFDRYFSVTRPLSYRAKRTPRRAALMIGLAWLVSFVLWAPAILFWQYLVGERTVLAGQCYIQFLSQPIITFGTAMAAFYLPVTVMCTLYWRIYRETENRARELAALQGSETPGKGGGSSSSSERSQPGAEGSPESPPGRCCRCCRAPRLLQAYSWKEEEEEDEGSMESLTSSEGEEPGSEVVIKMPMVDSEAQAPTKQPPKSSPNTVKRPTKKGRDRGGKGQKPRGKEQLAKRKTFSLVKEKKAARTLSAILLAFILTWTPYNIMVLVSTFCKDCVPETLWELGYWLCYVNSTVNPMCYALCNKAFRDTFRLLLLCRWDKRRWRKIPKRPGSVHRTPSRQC

Structure (SMILES) | EC50
Cc1cc(NC(=O)CS(=O)(=O)c2cn(Cc3cccc(C(F)(F)F)c3)c3ccccc23)no1 | > 30 µM (inactive)
Cc1cc(NC(=O)CS(=O)(=O)c2cn(Cc3ccc(F)c(-c4ccn[nH]4)c3)c3ccccc23)no1 | > 30 µM (inactive)
Cc1cc(NC(=O)CS(=O)(=O)c2cn(Cc3cccc(-c4ccccc4)c3)c3ccccc23)no1 | > 30 µM (inactive)

The remaining lines, values ahead:

EC50 | Structure (SMILES)
> 30 µM (inactive) | Cc1cc(NC(=O)CS(=O)(=O)c2cn(Cc3ccc(F)c(Cl)c3)c3ccccc23)no1
> 30 µM (inactive) | Cc1cc(NC(=O)CS(=O)(=O)c2cn(Cc3ccc(Cl)c(Cl)c3)c3ccccc23)no1
